Results on 20 compounds are retold here after US9802937B2, “Substituted pyrazolo{4,3-D}pyrimidines as kinase inhibitors” (ORIGENIS GMBH, priority 2011, dated 2017).

pIC50, pKi: −log10 of the molar value. A value given as a limit tells only on which side of the number the result lay.

The test system of one assay is Syk. The note with it: various stimuli, including FcepsilonR1 and BCR induced Syk activation; cited from earlier work.
In the next assay the test system is JAK kinases. The note with it: cited from earlier work.
Assay [1] concerns refractory NHL and chronic lymphocytic leukemia. The note with it: phase II; cited from earlier work.
Assay [2] concerns lymphoma cell lines and primary human lymphoma samples. The note with it: cited from earlier work.
In the next assay the target is LRRK2 (Homo sapiens, UniProt Q5S007). The assay is described as follows: LRRK2-LRRK2 G2019S-Assay (LanthaScreen Eu Kinase Binding Assay). The note with it: 5 nM LRRK2 or their mutants, 10 nM tracer 236, RT 1 h; read-out: LRRK2 Activities: IC50. The method, boiled down: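 Kinase (wild type or mutant, 5 nM) mixed with Eu-anti-GST antibody (2 nM), then 10 nM Alexa Fluor 647 tracer 236 added. After 1 h at room temperature, the acceptor/donor (665/615 nm) FRET ratio was measured. IC50 was fitted from concentration–ratio curves.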

The next assay addresses MYLK (Homo sapiens, UniProt Q15746). The experiment in a line: MYLK Assay (LanthaScreen Eu Kinase Binding Assay). The note with it: 5 nM MYLK, 30 nM tracer 236, RT 1 h; read-out: MYLK Activities: IC50. The method, then:
In the assay LanthaScreen™ Eu Kinase Binding Assay by Invitrogen Corporation (Carlsbad) the effect of invention of a compound on the phosphorylation is determined by measurement of fluorescence intensity emission ratio based on the binding and displacement of a proprietary, Alexa Fluor® 647-labeled, ATP-competitive kinase inhibitor scaffold (kinase tracer) to the kinase of interest as described above.
To the wells of an 384 well small volume plate (Greiner, Frickenhausen) are added (i) the compound under test in 5% is DMSO/distilled water (5 μl), (ii) 5 μl of the kinase antibody mixture resulting in a final concentration 5 nM MYLK, 2 nM EU-Anti-GST antibody in 1× kinase buffer A. The reaction was started with addition of (iii) 5 μl resulting in a final concentration of 30 nM tracer 236. The assay plate was incubated at RT for 1 h and fluorescence intensity readings were collected using a TECAN M1000 at two wavelengths of λex 340/λem 615 nm and λex 340/λem 665 nm with a delay time of 100 μs and an integration time of 200 μs after 60 minutes. The emission ratio was calculated by division of the acceptor/tracer emission ([…]) by the antibody/donor emission ([…]). The inhibitor concentration was plotted versus the emission ratio to determine the IC50 using XLFit 5.0 (IDBS, Guildford) to fit to a sigmoidal dose response curve with a variable slope.
In general terms: TR-FRET usually uses a lanthanide donor and a delayed reading to cut background.

A further assay addresses T1, SYK kinase (Homo sapiens, UniProt P43405).
T1 construct: purchased Invitrogen, Carlsbad
The assay is described as follows: SYK Assay (OMNIA KINASE ASSAY, SOX peptide fluorescence). It counts as biochemical. The note with it: apparent Ki calculated from the IC50 using the Cheng-Prusoff equation; 1 mM ATP, 30° C.; read-out: SYK Activities: Ki. Put shortly:
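Apparent Ki values are derived by Cheng-Prusoff from IC50s of sigmoidal fits of reaction rate against compound concentration. Rates come from chelation-enhanced SOX fluorescence (λex 360/λem 485 nm, read every 30 s over 30 min) as the kinase phosphorylates 10 µM Omnia Tyr 7 peptide at 30 °C, with 1 mM ATP and 0.2 mM DTT.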

Sequence of MYLK (Q15746 whole entry): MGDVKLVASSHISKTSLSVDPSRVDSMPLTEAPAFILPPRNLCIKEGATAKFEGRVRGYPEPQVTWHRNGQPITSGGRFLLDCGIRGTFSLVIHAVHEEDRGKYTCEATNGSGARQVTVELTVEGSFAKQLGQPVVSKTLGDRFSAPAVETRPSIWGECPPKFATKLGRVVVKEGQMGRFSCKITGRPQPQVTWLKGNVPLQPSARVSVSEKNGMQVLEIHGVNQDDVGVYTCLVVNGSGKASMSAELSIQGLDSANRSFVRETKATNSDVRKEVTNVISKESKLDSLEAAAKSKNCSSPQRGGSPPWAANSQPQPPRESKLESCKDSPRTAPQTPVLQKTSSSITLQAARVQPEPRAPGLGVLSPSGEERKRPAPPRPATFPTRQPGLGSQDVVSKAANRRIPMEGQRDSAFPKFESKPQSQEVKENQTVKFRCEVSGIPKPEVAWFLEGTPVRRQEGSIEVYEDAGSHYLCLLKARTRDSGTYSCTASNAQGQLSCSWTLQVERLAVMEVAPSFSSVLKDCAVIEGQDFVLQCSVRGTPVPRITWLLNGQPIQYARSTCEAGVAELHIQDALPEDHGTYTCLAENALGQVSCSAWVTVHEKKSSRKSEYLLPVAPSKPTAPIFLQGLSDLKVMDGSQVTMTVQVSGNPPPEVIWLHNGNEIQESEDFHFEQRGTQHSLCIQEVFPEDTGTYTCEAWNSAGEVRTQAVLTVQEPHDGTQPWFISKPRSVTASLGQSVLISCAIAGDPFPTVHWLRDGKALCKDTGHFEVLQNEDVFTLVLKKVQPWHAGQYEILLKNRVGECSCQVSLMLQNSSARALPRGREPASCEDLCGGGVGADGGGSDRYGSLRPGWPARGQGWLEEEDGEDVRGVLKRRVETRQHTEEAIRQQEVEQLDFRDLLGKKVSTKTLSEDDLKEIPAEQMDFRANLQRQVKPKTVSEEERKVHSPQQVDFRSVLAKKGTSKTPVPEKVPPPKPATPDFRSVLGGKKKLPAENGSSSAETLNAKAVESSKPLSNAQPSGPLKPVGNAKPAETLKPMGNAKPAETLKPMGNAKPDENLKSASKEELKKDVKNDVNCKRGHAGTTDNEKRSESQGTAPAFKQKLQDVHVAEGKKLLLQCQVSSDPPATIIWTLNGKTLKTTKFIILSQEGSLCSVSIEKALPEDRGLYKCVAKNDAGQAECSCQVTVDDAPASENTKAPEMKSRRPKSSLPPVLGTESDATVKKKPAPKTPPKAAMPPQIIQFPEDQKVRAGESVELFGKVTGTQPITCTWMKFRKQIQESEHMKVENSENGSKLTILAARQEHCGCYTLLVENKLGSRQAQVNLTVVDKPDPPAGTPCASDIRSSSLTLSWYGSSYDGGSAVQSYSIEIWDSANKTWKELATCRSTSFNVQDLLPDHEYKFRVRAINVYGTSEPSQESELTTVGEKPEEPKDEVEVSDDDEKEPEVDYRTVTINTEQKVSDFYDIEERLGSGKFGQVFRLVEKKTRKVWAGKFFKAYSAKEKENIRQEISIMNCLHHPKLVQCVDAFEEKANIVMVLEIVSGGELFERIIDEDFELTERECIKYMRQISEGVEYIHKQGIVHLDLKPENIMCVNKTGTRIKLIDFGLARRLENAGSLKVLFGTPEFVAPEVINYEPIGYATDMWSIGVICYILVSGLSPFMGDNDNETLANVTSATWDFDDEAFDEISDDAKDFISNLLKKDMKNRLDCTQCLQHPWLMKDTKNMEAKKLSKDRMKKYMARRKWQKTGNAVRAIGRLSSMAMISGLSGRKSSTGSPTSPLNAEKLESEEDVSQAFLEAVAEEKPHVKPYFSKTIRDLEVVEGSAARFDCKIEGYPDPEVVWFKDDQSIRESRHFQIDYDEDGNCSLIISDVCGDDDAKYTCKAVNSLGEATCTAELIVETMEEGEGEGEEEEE
Sequence of LRRK2 (Q5S007 970-2527 limits assumed): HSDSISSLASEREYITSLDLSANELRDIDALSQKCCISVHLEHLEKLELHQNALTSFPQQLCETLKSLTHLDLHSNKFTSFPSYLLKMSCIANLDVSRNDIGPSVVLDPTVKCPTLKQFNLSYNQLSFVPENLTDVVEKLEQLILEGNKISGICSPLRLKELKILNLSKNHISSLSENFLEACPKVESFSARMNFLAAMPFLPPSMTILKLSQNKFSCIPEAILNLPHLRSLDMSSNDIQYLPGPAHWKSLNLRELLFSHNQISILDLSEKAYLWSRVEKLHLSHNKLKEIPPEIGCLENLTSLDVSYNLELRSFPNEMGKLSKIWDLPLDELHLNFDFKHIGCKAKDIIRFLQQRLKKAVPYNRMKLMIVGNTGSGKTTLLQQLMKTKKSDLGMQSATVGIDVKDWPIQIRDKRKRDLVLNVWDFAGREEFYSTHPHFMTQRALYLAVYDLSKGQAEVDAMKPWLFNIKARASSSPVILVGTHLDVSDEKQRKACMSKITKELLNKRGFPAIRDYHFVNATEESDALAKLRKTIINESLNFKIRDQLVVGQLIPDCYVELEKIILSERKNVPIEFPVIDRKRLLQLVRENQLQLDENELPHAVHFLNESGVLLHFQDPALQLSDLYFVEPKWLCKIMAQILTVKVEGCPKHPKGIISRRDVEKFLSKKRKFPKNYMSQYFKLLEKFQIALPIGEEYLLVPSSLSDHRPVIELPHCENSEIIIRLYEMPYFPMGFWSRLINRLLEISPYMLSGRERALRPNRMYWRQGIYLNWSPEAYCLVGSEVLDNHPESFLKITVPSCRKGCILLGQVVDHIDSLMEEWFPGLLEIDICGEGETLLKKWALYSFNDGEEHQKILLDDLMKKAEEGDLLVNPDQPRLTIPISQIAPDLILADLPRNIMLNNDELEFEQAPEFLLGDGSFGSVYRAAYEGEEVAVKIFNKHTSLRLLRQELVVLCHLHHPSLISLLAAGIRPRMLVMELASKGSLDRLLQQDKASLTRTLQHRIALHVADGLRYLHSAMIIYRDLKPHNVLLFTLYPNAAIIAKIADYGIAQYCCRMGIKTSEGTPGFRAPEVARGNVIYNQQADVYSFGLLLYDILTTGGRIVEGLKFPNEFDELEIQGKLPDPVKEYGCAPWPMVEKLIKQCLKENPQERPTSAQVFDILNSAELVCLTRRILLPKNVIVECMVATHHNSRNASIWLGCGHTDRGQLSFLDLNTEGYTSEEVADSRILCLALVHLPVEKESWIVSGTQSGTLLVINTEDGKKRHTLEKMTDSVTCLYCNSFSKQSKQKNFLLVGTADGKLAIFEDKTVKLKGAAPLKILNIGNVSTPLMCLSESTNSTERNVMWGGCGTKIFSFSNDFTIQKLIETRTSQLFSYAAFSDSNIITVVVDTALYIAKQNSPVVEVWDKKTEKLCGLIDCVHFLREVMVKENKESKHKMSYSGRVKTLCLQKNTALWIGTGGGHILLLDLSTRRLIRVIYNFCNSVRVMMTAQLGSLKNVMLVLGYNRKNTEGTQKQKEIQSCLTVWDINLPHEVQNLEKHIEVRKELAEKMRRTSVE

Turning to `COc1cc(Nc2ncc(F)c(Nc3ccc4c(n3)NC(=O)C(C)(C)O4)n2)cc(OC)c1OC` [Example R406], the “inhibition of ITAM signaling” value with Syk is recorded as “inhibit ITAM signaling”. The “activity against JAK kinases” value in the assay with JAK kinases is on record as “active”. Besides, the clinical result in assay [1] is “favorable results”. In assay [2] (lymphoma cell lines and primary human lymphoma samples), the BCR signaling result is “attenuates BCR signaling”. The apoptosis entry in assay [2] (lymphoma cell lines) was “resulting in apoptosis of the former”.

The term pIC50 denotes the negative decadic logarithm of the IC50, by convention in mol/L. The term pKi denotes the Ki on a negative log10 scale, so that one unit is a factor of ten. Regarding `CC(=O)N1CCN(c2ccc(Nc3nc(-c4cccc(NS(C)(=O)=O)c4)nc4cn[nH]c34)cc2)CC1` [Example #191, N-(3-(7-((4-(4-acetylpiperazin-1-yl)phenyl)amino)-1H-pyrazolo[4,3-d]pyrimidin-5-yl)phenyl)methanesulfonamide], the values for the pIC50 at LRRK2 and at MYLK were 6.00 to 7.00 and greater than 5.30, respectively. Further, the negative-log Ki (pKi) at SYK kinase is greater than 8.00.

For the compound `Oc1cccc(Nc2nc(-c3cccs3)nc3cn[nH]c23)c1` [Example #83, 3-((5-(thiophen-2-yl)-1H-pyrazolo[4,3-d]pyrimidin-7-yl)amino)phenol], the results for the pIC50 at LRRK2 and on MYLK were 6.00 to 7.00 and greater than 5.30, respectively. Further, at SYK kinase, the negative-log Ki (pKi) is 7.00 to 8.00.

For the compound `c1ccc2sc(-c3nc(Nc4ccc5c(c4)NCCO5)c4[nH]ncc4n3)nc2c1` [Example #97, N-(5-(benzo[d]thiazol-2-yl)-1H-pyrazolo[4,3-d]pyrimidin-7-yl)-3,4-dihydro-2H-benzo[b][1,4]oxazin-6-amine], the pIC50 on LRRK2 was 6.00 to 7.00; on MYLK it was greater than 5.30. In addition, the pKi at SYK kinase is 7.00 to 8.00.

On to `CN1CCN(C2CCN(c3ccc(Nc4nc(-c5cccs5)nc5cn[nH]c45)cc3)CC2)CC1` [Example #290, N-(4-(4-(4-methylpiperazin-1-yl)piperidin-1-yl)phenyl)-5-(thiophen-2-yl)-1H-pyrazolo[4,3-d]pyrimidin-7-amine], for which the pIC50 on LRRK2 was 6.00 to 7.00; at MYLK it was greater than 5.30. Besides, the pKi at SYK kinase is greater than 8.00.

Turning to `CN1CCN(c2ccc(Nc3nc(-c4nccs4)nc4cn[nH]c34)cc2)CC1` [Example #179, N-(4-(4-methylpiperazin-1-yl)phenyl)-5-(thiazol-2-yl)-1H-pyrazolo[4,3-d]pyrimidin-7-amine], the pIC50 on LRRK2 is 6.00 to 7.00; at MYLK, greater than 5.30. The pKi on SYK kinase is greater than 8.00.

With `COc1cccc(-c2nc(Nc3ccc(CN4CCN(C)CC4)cc3)c3[nH]ncc3n2)c1` [Example #131, 5-(3-methoxyphenyl)-N-(4-((4-methylpiperazin-1-yl)methyl)phenyl)-1H-pyrazolo[4,3-d]pyrimidin-7-amine], the figures for the pIC50 at LRRK2 and at MYLK were 6.00 to 7.00 and greater than 5.30, respectively. Moreover, the pKi on SYK kinase is greater than 8.00.

For `Fc1ccccc1-c1nc(Nc2ccc(N3CCN(C4CC4)CC3)cc2)c2[nH]ncc2n1` [Example #279, N-(4-(4-cyclopropylpiperazin-1-yl)phenyl)-5-(2-fluorophenyl)-1H-pyrazolo[4,3-d]pyrimidin-7-amine], the pIC50 at LRRK2 was 6.00 to 7.00; on MYLK it was greater than 5.30. Further, the pKi at SYK kinase was 7.00 to 8.00.

With `CN1CCN(c2ccc(Nc3nc(-c4cccc(S(N)(=O)=O)c4)nc4cn[nH]c34)cc2)CC1` [Example #182, 3-(7-((4-(4-methylpiperazin-1-yl)phenyl)amino)-1H-pyrazolo[4,3-d]pyrimidin-5-yl)benzenesulfonamide], the negative-log IC50 (pIC50) was 7.00 to 8.00 on LRRK2 and greater than 5.30 on MYLK. Also, the pKi on SYK kinase is greater than 8.00.

In the case of `CN1CCN(c2ccc(Nc3nc(-c4cccc(-c5cccnc5)c4)nc4cn[nH]c34)cc2)CC1` [Example #99, N-(4-(4-methylpiperazin-1-yl)phenyl)-5-(3-(pyridin-3-yl)phenyl)-1H-pyrazolo[4,3-d]pyrimidin-7-amine], the pIC50 was 6.00 to 7.00 on LRRK2 and greater than 5.30 at MYLK. The pKi on SYK kinase was greater than 8.00.

In the case of `c1csc(-c2nc(Nc3ccc(CN4CCOCC4)cc3)c3[nH]ncc3n2)c1` [Example #295, N-(4-(morpholinomethyl)phenyl)-5-(thiophen-2-yl)-1H-pyrazolo[4,3-d]pyrimidin-7-amine], the pIC50 is 6.00 to 7.00 at LRRK2 and greater than 5.30 at MYLK. Also, the pKi at SYK kinase was greater than 8.00.

On to `COc1ccc(-c2nc(Nc3ccc(N4CCN(C)CC4)cc3)c3[nH]ncc3n2)cc1OC` [Example #34, 5-(3,4-dimethoxyphenyl)-N-(4-(4-methylpiperazin-1-yl)phenyl)-1H-pyrazolo[4,3-d]pyrimidin-7-amine], for which the pIC50 was 6.00 to 7.00 at LRRK2 and greater than 5.30 at MYLK. At SYK kinase, the pKi was greater than 8.00.

Turning to `CN1CCN(c2ccc(Nc3nc(-c4cccc(NS(C)(=O)=O)c4)nc4cn[nH]c34)cc2)CC1` [Example #187, N-(3-(7-((4-(4-methylpiperazin-1-yl)phenyl)amino)-1H-pyrazolo[4,3-d]pyrimidin-5-yl)phenyl)methanesulfonamide], the pIC50 on LRRK2 is 6.00 to 7.00; at MYLK it was greater than 5.30. For the same compound, the pKi on SYK kinase was greater than 8.00.

As to `c1cc(N2CCOCC2)ccc1Nc1nc(-c2ccc3cn[nH]c3c2)nc2cn[nH]c12` [Example #247, 5-(1H-indazol-6-yl)-N-(4-morpholinophenyl)-1H-pyrazolo[4,3-d]pyrimidin-7-amine], the pIC50 at LRRK2 is greater than 8.00; at MYLK, greater than 5.30. In addition, the pKi on SYK kinase is greater than 8.00.

Turning to `CN1CCN(c2ccc(Nc3nc(-c4ccsc4)nc4cn[nH]c34)cc2)CC1` [Example #74, N-(4-(4-methylpiperazin-1-yl)phenyl)-5-(thiophen-3-yl)-1H-pyrazolo[4,3-d]pyrimidin-7-amine], the pIC50 on LRRK2 is 6.00 to 7.00; on MYLK it was greater than 5.30. For the same compound, the negative-log Ki (pKi) on SYK kinase is greater than 8.00.

For `NC(=O)c1cccc(Nc2nc(-c3ccccc3)nc3cn[nH]c23)c1` [Example #5, 3-((5-phenyl-1H-pyrazolo[4,3-d]pyrimidin-7-yl)amino)benzamide], the pIC50 on LRRK2 was 6.00 to 7.00; on MYLK, greater than 5.30. Also, the pKi on SYK kinase is greater than 8.00.

Turning to `COc1ccc(Nc2nc(-c3ccc4cn[nH]c4c3)nc3cn[nH]c23)cc1OC` [Example #280, N-(3,4-dimethoxyphenyl)-5-(1H-indazol-6-yl)-1H-pyrazolo[4,3-d]pyrimidin-7-amine], the pIC50 on LRRK2 is 7.00 to 8.00; at MYLK, greater than 5.30. Also, at SYK kinase, the pKi was greater than 8.00.

As for `COc1cc(Nc2nc(-c3cccc(S(N)(=O)=O)c3)nc3cn[nH]c23)ccc1N1CCOCC1` [Example #240, 3-(7-((3-methoxy-4-morpholinophenyl)amino)-1H-pyrazolo[4,3-d]pyrimidin-5-yl)benzenesulfonamide], the pIC50 is 6.00 to 7.00 at LRRK2 and greater than 5.30 on MYLK. Further, the pKi at SYK kinase was greater than 8.00.

Consider `CS(=O)(=O)Nc1cccc(-c2nc(Nc3ccc(N4CCNCC4)cc3)c3[nH]ncc3n2)c1` [Example #188, N-(3-(7-((4-(piperazin-1-yl)phenyl)amino)-1H-pyrazolo[4,3-d]pyrimidin-5-yl)phenyl)methanesulfonamide], for which the pIC50 on LRRK2 is 6.00 to 7.00; on MYLK, greater than 5.30. Further, on SYK kinase, the pKi is greater than 8.00.

Regarding `CSc1cccc(-c2nc(Nc3ccc(N4CCN(C)CC4)cc3)c3[nH]ncc3n2)c1` [Example #225, N-(4-(4-methylpiperazin-1-yl)phenyl)-5-(3-(methylthio)phenyl)-1H-pyrazolo[4,3-d]pyrimidin-7-amine], the pIC50 at LRRK2 is 6.00 to 7.00; at MYLK it was greater than 5.30. In addition, the negative-log Ki (pKi) on SYK kinase is greater than 8.00.
